According to patent US20070117743A1, “New antitumoral compounds” (priority 2003, published 2007):

What was measured:
Format in all cases: cell-based, human
HeLa-APL = assay: SRB colorimetric assay of cell growth and viability, HeLa-APL; settings: HELA-APL, 48 hours exposure
A-549 = assay: SRB colorimetric assay of cell growth and viability, A-549; settings: A-549, 48 hours exposure
IGROV-ET = assay: SRB colorimetric assay of cell growth and viability, IGROV-ET; settings: IGROV-ET, 48 hours exposure
PANC-1 = assay: SRB colorimetric assay of cell growth and viability, PANC-1; settings: PANC-1, 48 hours exposure
HeLa = assay: SRB colorimetric assay of cell growth and viability, HeLa; settings: HELA, 48 hours exposure
SK-BR-3 = assay: SRB colorimetric assay of cell growth and viability, SK-BR-3; settings: SK-BR-3; 48 hours exposure
Text: The finality of this assay is to interrupt the growth of a “in vitro” tumor cell culture by means a continued exhibition of the cells to the sample to be testing.
This form of the assay employs 96 well cell culture microplates of 9 mm diameter (Faircloth, 1988; Mosmann, 1983). Most of the cell lines are obtained from American Type Culture Collection (ATCC) derived from different human cancer types.
Cells are maintained in RPMI 1640 10% FBS, supplemented with 0.1 g/l penicillin and 0.1 g/l streptomycin sulfate and then incubated at 37° C., 5% CO2 and 98% humidity. For the experiments, cells were harvested from subconfluent cultures using trypsin and resuspended in fresh medium before plating.
Cells are seeded in 96 well microtiter plates, at 5×10^3 cells per well in aliquots of 195 μL medium, and they are allowed to attach to the plate surface by growing in drug free medium for 18 hours. Afterward, samples are added in aliquots of 5 μL in a ranging from 10 to 10^−8 μg/mL, dissolved in DMSO:EtOH:PBS (0.5:0.5:99). After 48 hours exposure, the antitumor effect are measured by the SRB methodology: cells are fixed by adding 50 μL of cold 50% (wt/vol) trichloroacetic acid (TCA) and incubating for 60 minutes at 4° C. Plates are washed with deionized water and dried. One hundred μL of SRB solution (0.4% wt/vol in 1% acetic acid) is added to each microtiter well and incubated for 10 minutes at room temperature. Unbound SRB is removed by washing with 1% acetic acid. Plates are air dried and bound stain is solubilized with Tris buffer. Optical densities are read on a automated spectrophotometric plate reader at a single wavelength of 490 nm.
The values for mean+/− SD of data from triplicate wells are calculated. Some parameters for cellular responses can be calculated: GI=growth inhibition, TGI=total growth inhibition (cytostatic effect) and LC=cell killing (cytotoxic effect).

HT-29 = assay: SRB colorimetric assay of cell growth and viability, HT-29; settings: HT-29, 48 hours exposure
LoVo-Dox = assay: SRB colorimetric assay of cell growth and viability, LoVo-Dox; settings: LOVO-DOX, 48 hours exposure
Summary of the method: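 Sulforhodamine B assay run after 48 h of continuous drug contact; cells seeded 5×10^3/well in RPMI 1640 10% FBS, attached 18 h. Triplicate OD490 values give cytostatic (TGI), cytotoxic (LC) and GI parameters.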

LoVo = assay: SRB colorimetric assay of cell growth and viability, LoVo; settings: LOVO, 48 hours exposure
IGROV-1 = assay: SRB colorimetric assay of cell growth and viability, IGROV-1; settings: IGROV; 48 hours exposure
K-562 = assay: SRB colorimetric assay of cell growth and viability, K-562; settings: K-562, 48 hours exposure
SK-MEL-28 = assay: SRB colorimetric assay of cell growth and viability, SK-MEL-28; settings: MEL-28, 48 hours exposure
DU-145 = assay: SRB colorimetric assay of cell growth and viability, DU-145; settings: DU-145; 48 hours exposure

C/C=C1\NC(=O)[C@H](Cc2ccc(Cl)cc2)NC(=O)[C@@H](C(C)C)NC(=O)[C@@H]([C@@H](C)CC)NC(=O)[C@H](NC(=O)[C@H](NC(=O)[C@H](CCCN)NC(=O)[C@H]2CCCN2C(=O)[C@H](NC(=O)[C@@H](NC(=O)[C@@H](NC(=O)[C@H](NC(=O)CCCC(C)C)C(C)C)[C@@H](C)O)C(C)C)C(C)C)[C@@H](C)CC)[C@@H](C)OC(=O)[C@H](C(C)C)NC1=O [Compound 83, [Phe(4-Cl)^3]-KF]
GI50 (HeLa-APL): 96.5 nM
TGI HELA-APL (HeLa-APL): 2.28E−07 Molar
CC50 (HeLa-APL; read-out: LC50 HELA-APL): 470 nM
TGI A-549 (A-549): 3.62E−07 Molar
GI50 (A-549; read-out: GI50 A-549): 221 nM
CC50 (A-549; read-out: LC50 A-549): 593 nM
GI50 (IGROV-ET): 65.2 nM
TGI IGROV-ET (IGROV-ET): 1.21E−07 Molar
CC50 (IGROV-ET; read-out: LC50 IGROV-ET): 587 nM
GI50 (PANC-1): 658 nM
TGI PANC-1 (PANC-1): 1.07E−06 Molar
CC50 (PANC-1; read-out: LC50 PANC-1): 1750 nM
GI50 (HeLa): 51.9 nM
TGI HELA (HeLa): 2.00E−07 Molar
CC50 (HeLa; read-out: LC50 HELA): 475 nM
GI50 (SK-BR-3): 34.2 nM
LC50 (SK-BR-3): 155 nM
TGI SK-BR-3 (SK-BR-3): 5.29E−08 Molar
TGI HT-29 (HT-29): 8.24E−08 Molar
GI50 (HT-29; read-out: GI50 HT-29): 36.8 nM
CC50 (HT-29; read-out: LC50 HT-29): 172 nM
GI50 (LoVo-Dox): 38.2 nM
TGI LOVO-DOX (LoVo-Dox): 7.81E−08 Molar
CC50 (LoVo-Dox; read-out: LC50 LOVO-DOX): 1840 nM
GI50 (LoVo): 30.3 nM
TGI LOVO (LoVo): 6.27E−08 Molar
CC50 (LoVo; read-out: LC50 LOVO): 165 nM
GI50 (IGROV-1): 37.1 nM
LC50 (concentration causing 50% net cell killing) (IGROV-1): 143 nM
TGI IGROV (IGROV-1): 7.69E−08 Molar
GI50 (K-562): 333 nM
TGI K-562 (K-562): 5.08E−07 Molar
CC50 (K-562; read-out: LC50 K-562): 1130 nM
GI50 (SK-MEL-28): 206 nM
TGI MEL-28 (SK-MEL-28): 3.40E−07 Molar
CC50 (SK-MEL-28; read-out: LC50 MEL-28): 561 nM
GI50 (DU-145): 83 nM
LC50 (concentration causing 50% net cell kill) (DU-145): 461 nM
TGI DU-145 (DU-145): 2.07E−07 Molar
